Laboratory results: publication PMC7483475, “The Sporomusa type Nfn is a novel type of electron-bifurcating transhydrogenase that links the redox pools in acetogenic bacteria” (Scientific Reports, 2020)
Each block holds one molecule with its values, some of them ahead of it.

Legend:
StnC (strep-tagged) [1] = target: T1, StnC (strep-tagged) (Sporomusa ovata, UniProt A0A0U1KYI6); assay: spectrophotometric NADPH-dependent acceptor reduction; format: biochemical; conditions: acceptors methyl viologen, FAD, FMN or ferricyanide; 100 mM Tris/HCl pH 7.5, 20 °C
T1 construct: gene SpAn4DRAFT_2937; isolated subunit, N-terminal Strep-tag kept, E. coli BL21 (DE3) delta-iscR; translated from primers: N-term MWSHPQFEKSA-SKISININGR, C-term NFVNGRQSL
T1 sequence (A0A0U1KYI6 2-1172): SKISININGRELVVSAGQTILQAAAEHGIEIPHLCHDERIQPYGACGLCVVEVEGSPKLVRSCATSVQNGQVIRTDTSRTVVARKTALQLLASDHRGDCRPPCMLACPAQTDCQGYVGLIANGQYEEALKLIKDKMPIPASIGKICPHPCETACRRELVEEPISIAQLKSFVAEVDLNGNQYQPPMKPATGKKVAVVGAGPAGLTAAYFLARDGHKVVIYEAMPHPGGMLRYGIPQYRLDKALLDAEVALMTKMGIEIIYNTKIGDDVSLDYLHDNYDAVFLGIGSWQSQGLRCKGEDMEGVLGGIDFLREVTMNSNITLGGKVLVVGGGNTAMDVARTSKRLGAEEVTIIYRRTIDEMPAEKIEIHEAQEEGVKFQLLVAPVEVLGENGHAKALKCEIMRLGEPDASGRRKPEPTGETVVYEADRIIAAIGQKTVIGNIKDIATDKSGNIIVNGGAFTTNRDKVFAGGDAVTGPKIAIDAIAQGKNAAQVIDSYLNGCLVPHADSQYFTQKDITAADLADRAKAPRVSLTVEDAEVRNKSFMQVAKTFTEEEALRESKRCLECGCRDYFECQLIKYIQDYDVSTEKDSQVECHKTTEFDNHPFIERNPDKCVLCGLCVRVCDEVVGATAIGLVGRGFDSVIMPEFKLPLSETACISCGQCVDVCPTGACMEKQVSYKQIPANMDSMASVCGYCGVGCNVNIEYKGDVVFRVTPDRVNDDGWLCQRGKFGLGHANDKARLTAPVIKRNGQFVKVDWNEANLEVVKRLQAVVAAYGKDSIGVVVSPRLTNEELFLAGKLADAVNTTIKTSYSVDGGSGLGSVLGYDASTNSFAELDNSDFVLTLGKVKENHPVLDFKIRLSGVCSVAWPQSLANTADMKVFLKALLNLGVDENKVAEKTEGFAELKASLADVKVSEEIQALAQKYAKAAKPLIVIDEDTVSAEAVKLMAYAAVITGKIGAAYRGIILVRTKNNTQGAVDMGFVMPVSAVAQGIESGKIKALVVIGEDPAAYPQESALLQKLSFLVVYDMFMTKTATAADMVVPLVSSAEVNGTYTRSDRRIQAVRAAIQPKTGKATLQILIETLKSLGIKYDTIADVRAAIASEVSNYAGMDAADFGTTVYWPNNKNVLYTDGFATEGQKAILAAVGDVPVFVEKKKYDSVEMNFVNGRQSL

StnC (strep-tagged) [2] = target: T1, StnC (strep-tagged); assay: thin layer chromatography of bound flavin; format: binding; conditions: bound flavin of recombinant StnC
[3] = target: T2, Stn complex (Sporomusa type Nfn; StnABC) (Sporomusa ovata, UniProt A0A0U1KYI6+A0A0U1KYM9); assay: protein precipitation and thin layer chromatography of released flavin; format: binding; conditions: bound flavin, loosely bound; FAD and FMN present in purification buffers
T2 construct: gene SpAn4DRAFT_2936; native purification from S. ovata cytoplasm, untagged; ~840 kDa tetrameric heterotrimer; identified by MALDI-TOF-MS; with Sporomusa type Nfn subunit A (NuoE-like, HydC/HndA-like [2Fe-2S] subunit)
T2 sequence (A0A0U1KYM9 1-584): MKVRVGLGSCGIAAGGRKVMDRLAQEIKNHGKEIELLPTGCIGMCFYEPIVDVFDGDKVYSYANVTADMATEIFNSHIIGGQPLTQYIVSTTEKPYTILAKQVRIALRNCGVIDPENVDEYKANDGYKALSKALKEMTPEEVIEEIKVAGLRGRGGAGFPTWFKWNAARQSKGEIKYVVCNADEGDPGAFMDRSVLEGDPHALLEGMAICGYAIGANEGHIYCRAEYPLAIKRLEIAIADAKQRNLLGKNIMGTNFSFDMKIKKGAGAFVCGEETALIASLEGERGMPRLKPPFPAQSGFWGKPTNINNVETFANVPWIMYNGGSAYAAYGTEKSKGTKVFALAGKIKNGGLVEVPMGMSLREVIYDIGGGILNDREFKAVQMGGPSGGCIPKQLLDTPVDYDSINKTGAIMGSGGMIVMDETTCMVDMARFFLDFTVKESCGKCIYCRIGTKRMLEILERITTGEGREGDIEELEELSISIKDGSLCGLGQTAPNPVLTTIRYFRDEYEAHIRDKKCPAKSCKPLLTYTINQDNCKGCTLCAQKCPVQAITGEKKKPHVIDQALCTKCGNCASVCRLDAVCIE
T2 sequence (A0A0U1KYI6 1-1172): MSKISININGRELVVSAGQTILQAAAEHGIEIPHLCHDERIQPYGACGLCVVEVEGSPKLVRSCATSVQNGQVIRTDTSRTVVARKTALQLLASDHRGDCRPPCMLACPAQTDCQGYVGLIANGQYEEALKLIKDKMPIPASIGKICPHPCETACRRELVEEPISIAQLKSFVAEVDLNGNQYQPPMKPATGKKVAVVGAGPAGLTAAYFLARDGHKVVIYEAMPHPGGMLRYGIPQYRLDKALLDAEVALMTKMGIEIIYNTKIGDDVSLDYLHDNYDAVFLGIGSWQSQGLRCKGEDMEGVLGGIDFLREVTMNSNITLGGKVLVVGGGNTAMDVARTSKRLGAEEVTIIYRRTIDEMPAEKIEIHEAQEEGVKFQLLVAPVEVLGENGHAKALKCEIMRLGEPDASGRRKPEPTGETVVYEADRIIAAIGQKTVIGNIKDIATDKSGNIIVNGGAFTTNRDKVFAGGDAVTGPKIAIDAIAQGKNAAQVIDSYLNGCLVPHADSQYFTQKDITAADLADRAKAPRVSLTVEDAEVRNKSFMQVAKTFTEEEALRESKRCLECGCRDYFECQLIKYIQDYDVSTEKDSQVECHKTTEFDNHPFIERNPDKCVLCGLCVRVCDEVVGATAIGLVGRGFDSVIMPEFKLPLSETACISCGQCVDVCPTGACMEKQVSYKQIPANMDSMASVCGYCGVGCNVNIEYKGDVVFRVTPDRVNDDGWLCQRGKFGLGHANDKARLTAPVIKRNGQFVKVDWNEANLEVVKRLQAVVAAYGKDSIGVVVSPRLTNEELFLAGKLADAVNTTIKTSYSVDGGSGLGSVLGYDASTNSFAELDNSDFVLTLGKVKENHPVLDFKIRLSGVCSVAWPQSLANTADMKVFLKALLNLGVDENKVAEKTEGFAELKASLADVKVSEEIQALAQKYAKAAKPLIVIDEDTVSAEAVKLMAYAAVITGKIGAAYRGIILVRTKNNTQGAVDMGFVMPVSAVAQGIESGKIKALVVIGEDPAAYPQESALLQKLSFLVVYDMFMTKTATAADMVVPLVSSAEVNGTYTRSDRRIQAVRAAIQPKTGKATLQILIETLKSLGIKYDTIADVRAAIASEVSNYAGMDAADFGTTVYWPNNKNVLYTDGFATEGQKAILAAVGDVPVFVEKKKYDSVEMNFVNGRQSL
T2 sequence (A0A0U1KYW8 1-178 partner): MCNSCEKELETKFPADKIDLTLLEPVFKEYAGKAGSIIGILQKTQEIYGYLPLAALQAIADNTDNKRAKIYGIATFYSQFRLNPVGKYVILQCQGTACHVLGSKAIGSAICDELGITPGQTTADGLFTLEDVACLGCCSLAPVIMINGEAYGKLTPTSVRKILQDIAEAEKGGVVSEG

StnC (strep-tagged) [4] = target: T1, StnC (strep-tagged); assay: spectrophotometric FMN reduction, […] nm; format: biochemical; conditions: electron acceptor, 0.2 mM FMN, 0.25 mM NADPH; 100 mM Tris/HCl pH 7.5, 20 °C
[5] = target: Sporomusa type Nfn (Stn) complex, heterotrimer of StnA, StnB and StnC (Sporomusa ovata); assay: SEC; analytical gel filtration of the purified Stn complex on Superdex 200; heterotrimer to tetramer of heterotrimers

Molecule: NC(=O)C1=CN([C@@H]2O[C@H](COP(=O)(O)OP(=O)(O)OC[C@H]3O[C@@H](n4cnc5c(N)ncnc54)[C@H](OP(=O)(O)O)[C@@H]3O)[C@@H](O)[C@H]2O)C=CC1 [NADPH]
spectrophotometric NADPH-dependent acceptor reduction (StnC (strep-tagged) [1]): The purified protein exhibited NADPH oxidation with methyl viologen, FAD, FMN and ferricyanide

Molecule: Cc1cc2nc3c(=O)[nH]c(=O)nc-3n(C[C@H](O)[C@H](O)[C@H](O)COP(=O)(O)OP(=O)(O)OC[C@H]3O[C@@H](n4cnc5c(N)ncnc54)[C@H](O)[C@@H]3O)c2cc1C [FAD]
thin layer chromatography of bound flavin (StnC (strep-tagged) [2]): The identity of bound Flavin was elucidated by TLC to be FAD.
protein precipitation and thin layer chromatography of released flavin [3]: FAD was identified to be the only flavin bound

Molecule: Cc1cc2nc3c(=O)[nH]c(=O)nc-3n(C[C@H](O)[C@H](O)[C@H](O)COP(=O)(O)O)c2cc1C [FMN]
spectrophotometric FMN reduction, 450 nm (StnC (strep-tagged) [4]): The purified protein exhibited NADPH oxidation with methyl viologen, FAD, FMN and ferricyanide

stoichiometry N [5]: 4
Molecule: Sporomusa type Nfn (Stn) complex, heterotrimer of StnA, StnB and StnC
